Source: patent US4894458A, “Quinolonecarboxylic acid derivatives and their preparation” (Kyorin Pharmaceutical Co., Ltd., priority 1986, dated 1990)
≈ marks a conversion by molar mass, not a printed value. Where two headings read alike, the source gives them in different places.

Experiments:
Type in all cases: cell-based
[1] = tested on: Bacillus subtilis PCI 219; assay: In vitro antibacterial activity (aerobic bacteria), MIC
[2] = tested on: Acinetobacter anitratus IID 876; assay: as above; conditions: Acinetobacter calcoaceticus, IID876, Gram -, 10^6 cells/ml, read-out: MIC
Protocol: (§1) Minimal inhibitory concentrations (MICs) were determined in accordance with the method recommended by Japan Society of Chemotherapy.

E. coli ATCC 10536 = assay: as above; conditions: Escherichia coli, ATCC10536, Gram -, 10^6 cells/ml
Protocol: as §1

K. pneumoniae 1-220S = assay: as above; conditions: Klebsiella pneumoniae, 1220S, Gram -, 10^6 cells/ml
Protocol: as §1

[3] = tested on: Morganella morganii IID 602; assay: as above; conditions: Morganella morganii, IID602, Gram -, 10^6 cells/ml, read-out: MIC
Protocol: as §1

P. mirabilis IID 994 = assay: as above; conditions: Proteus mirabilis, IID994, Gram -, 10^6 cells/ml
Protocol: as §1

[4] = tested on: Proteus vulgaris IFO 3167; assay: as above; conditions: IFO3167, Gram -, 10^6 cells/ml
Protocol: as §1

[5] = tested on: Pseudomonas aeruginosa V-1; assay: as above; conditions: Pseudomonas aeruginosa, V1, aerobic; Gram -; 10^6 cells/ml; read-out: MIC
Protocol: as §1

[6] = tested on: S. aureus IID 670 (Terajima); assay: as above; conditions: Staphylococcus aureus, IID670, Gram +, 10^6 cells/ml
Protocol: as §1

S. epidermidis IID 866 = assay: as above; conditions: Staphylococcus epidermidis, IID866, Gram +, 10^6 cells/ml
Protocol: as §1

[7] = tested on: Serratia marcescens IID 618; assay: as above; conditions: IID618, Gram -, 10^6 cells/ml
Protocol: as §1

Shigella sonnei IID 969 = assay: as above; conditions: IID969, Gram -, 10^6 cells/ml
Protocol: as §1

[8] = tested on: Staphylococcus aureus 209 P; assay: as above; conditions: Gram +, 10^6 cells/ml
Protocol: as §1

[9] = tested on: Escherichia coli NIHJ JC-2; assay: as above; conditions: NIHJJC2, aerobic, Gram -, 10^6 cells/ml
[10] = tested on: Klebsiella pneumoniae KY(GN)6445; assay: as above
[11] = tested on: Enterobacter cloacae IID 977; assay: as above
[12] = tested on: Citrobacter freundii IID 976; assay: as above; conditions: Citrobacter freundii, IID976, aerobic, Gram -, 10^6 cells/ml
[13] = tested on: Salmonella enteritidis IID 604; assay: as above; conditions: Salmonella enterica
P. aeruginosa IFO 12689 = assay: as above; conditions: Pseudomonas aeruginosa, IFO12689
P. aeruginosa IID 1210 = assay: as above; conditions: Pseudomonas aeruginosa, IID1210, aerobic, Gram -, 10^6 cells/ml
P. cepacia GIFU 518 = assay: as above; conditions: Burkholderia cepacia, GIFU518
P. maltophilia GIFU 2491 = assay: as above; conditions: Stenotrophomonas maltophilia, GIFU2491
[14] = tested on: Yersinia enterocolitica IID 981; assay: microbe, parasite or virus in culture; conditions: IID981
[15] = tested on: Alcaligenes faecalis 0114002; assay: In vitro antibacterial activity (aerobic bacteria), MIC; conditions: Alcaligenes faecalis, 0114002, aerobic, Gram -, 10^6 cells/ml
[16] = tested on: Bacteroides fragilis GM 7000; assay: In vitro antibacterial activity (anaerobic bacteria), MIC
B. fragilis 0558 = assay: as above; conditions: Bacteroides fragilis
B. fragilis 25285 = assay: as above; conditions: Bacteroides fragilis
B. distasonis 8503 = assay: as above; conditions: Parabacteroides distasonis, Gram -, 10^6 cells/ml
[17] = tested on: B. thetaiotaomicron (0661); assay: as above; conditions: Bacteroides thetaiotaomicron
[18] = tested on: Fusobacterium necrophorum S-45; assay: as above; conditions: S45, anaerobic, Gram -, 10^6 cells/ml, read-out: MIC
F. varium KYA 8501 = assay: as above; conditions: Fusobacterium varium, KYA8501
[19] = tested on: Eubacterium lentum GAI 5242; assay: as above; conditions: Eggerthella lenta, GAI5242
[20] = tested on: Propionibacterium acens 11828; assay: as above
[21] = tested on: Peptococcus magnus KY 017; assay: as above; conditions: Finegoldia magna, KY017, Gram +, 10^6 cells/ml, read-out: MIC
Protocol: as §1

[22] = tested on: Clostridium difficile I-E; assay: as above; conditions: Clostridioides difficile
C. perfringens KYA 13123 = assay: microbe, parasite or virus in culture; conditions: Clostridium perfringens, KYA13123
C. ramosum = assay: In vitro antibacterial activity (anaerobic bacteria), MIC; conditions: Thomasclavelia ramosa
[23] = tested on: Peptostreptococcus anaerobius KYA 27337; assay: as above
Pst micros UPI 5464-1 = assay: microbe, parasite or virus in culture
[24] = tested on: Veillonella parvula KYA 10790; assay: In vitro antibacterial activity (anaerobic bacteria), MIC
[25] = aerobic, Gram -, 10^6 cells/ml, read-out: MIC
[26] = anaerobic, Gram -, 10^6 cells/ml, read-out: MIC
[27] = anaerobic, Gram +, 10^6 cells/ml, read-out: MIC

## Cc1c(N2CCC(N)C2)c(F)cc2c(=O)c(C(=O)O)cn(C3CC3)c12 (stereo not shown) [Exp. 18, 7-(3-Amino-1-pyrrolidinyl)-1-cyclopropyl-6-fluoro-1,4-dihydro-8-methyl-4-oxo-3-quinolinecarboxylic acid]
[1]; PCI219, aerobic, Gram +, 10^6 cells/ml, read-out: MIC
  MIC: 0.025 µg/mL (≈ 0.0724 µM)
[2]
  MIC: 0.05 µg/mL (≈ 0.145 µM)
E. coli ATCC 10536
  MIC: 0.0125 µg/mL (≈ 0.0362 µM)
K. pneumoniae 1-220S
  MIC: 0.05 µg/mL (≈ 0.145 µM)
[3]
  MIC: 0.05 µg/mL (≈ 0.145 µM)
P. mirabilis IID 994
  MIC: 0.0125 µg/mL (≈ 0.0362 µM)
[4]
  MIC: 0.0125 µg/mL (≈ 0.0362 µM)
[5]
  MIC: 0.05 µg/mL (≈ 0.145 µM)
[6]
  MIC: 0.05 µg/mL (≈ 0.145 µM)
S. epidermidis IID 866
  MIC: 0.05 µg/mL (≈ 0.145 µM)
[7]
  MIC: 0.05 µg/mL (≈ 0.145 µM)
Shigella sonnei IID 969
  MIC: 0.0125 µg/mL (≈ 0.0362 µM)
[8]
  MIC: 0.05 µg/mL (≈ 0.145 µM)
[9]; read-out: MIC
  MIC: ≤ 0.0032 µg/mL
[10]; [25]
  MIC: 0.025 µg/mL (≈ 0.0724 µM)
[11]; IID977, aerobic, Gram -, 10^6 cells/ml, read-out: MIC
  MIC: 0.025 µg/mL (≈ 0.0724 µM)
[12]; read-out: MIC
  MIC: 0.025 µg/mL (≈ 0.0724 µM)
[13]; [25]
  MIC: 0.025 µg/mL (≈ 0.0724 µM)
P. aeruginosa IFO 12689; [25]
  MIC: 0.2 µg/mL (≈ 0.579 µM)
P. aeruginosa IID 1210; read-out: MIC
  MIC: 0.2 µg/mL (≈ 0.579 µM)
P. cepacia GIFU 518; [25]
  MIC: 0.2 µg/mL (≈ 0.579 µM)
P. maltophilia GIFU 2491; [25]
  MIC: 0.1 µg/mL (≈ 0.29 µM)
[14]
  MIC: 0.05 µg/mL (≈ 0.145 µM)
[15]; read-out: MIC
  MIC: 0.1 µg/mL (≈ 0.29 µM)
[16]; GM7000, anaerobic, Gram -, 10^6 cells/ml, read-out: MIC
  MIC: 0.2 µg/mL (≈ 0.579 µM)
B. fragilis 0558; [26]
  MIC: 0.1 µg/mL (≈ 0.29 µM)
B. fragilis 25285; [26]
  MIC: 0.2 µg/mL (≈ 0.579 µM)
B. distasonis 8503; read-out: MIC
  MIC: 0.39 µg/mL (≈ 1.13 µM)
[17]; [26]
  MIC: 0.78 µg/mL (≈ 2.26 µM)
[18]
  MIC: 0.1 µg/mL (≈ 0.29 µM)
F. varium KYA 8501; [26]
  MIC: 0.78 µg/mL (≈ 2.26 µM)
[19]; [27]
  MIC: 0.2 µg/mL (≈ 0.579 µM)
[20]; [27]
  MIC: 0.78 µg/mL (≈ 2.26 µM)
[21]
  MIC: 0.05 µg/mL (≈ 0.145 µM)
[22]; [27]
  MIC: 0.78 µg/mL (≈ 2.26 µM)
C. perfringens KYA 13123
  MIC: 0.05 µg/mL (≈ 0.145 µM)
C. ramosum
  MIC: 1.56 µg/mL (≈ 4.52 µM)
[23]; KYA27337, anaerobic, Gram +, 10^6 cells/ml, read-out: MIC
  MIC: 0.1 µg/mL (≈ 0.29 µM)
Pst micros UPI 5464-1; [27]
  MIC: 0.1 µg/mL (≈ 0.29 µM)
[24]; KYA10790, anaerobic, Gram -, 10^6 cells/ml, read-out: MIC
  MIC: 0.1 µg/mL (≈ 0.29 µM)

## Cc1c(N2C[C@@H](C)[C@H](N)C2)c(F)cc2c(=O)c(C(=O)O)cn(C3CC3)c12 (relative stereo) [Ex. 27, 7-(3,4-trans-3-Amino-4-methyl-1-pyrrolidinyl)-1-cyclopropyl-6-fluoro-1,4-dihydro-8-methyl-4-oxo-3-quinolinecarboxylic acid]
[1]; PCI219
  MIC: 0.0125 µg/mL (≈ 0.0348 µM)
[2]
  MIC: 0.025 µg/mL (≈ 0.0696 µM)
E. coli ATCC 10536
  MIC: 0.0063 µg/mL (≈ 0.0175 µM)
K. pneumoniae 1-220S
  MIC: 0.025 µg/mL (≈ 0.0696 µM)
[3]
  MIC: 0.05 µg/mL (≈ 0.139 µM)
P. mirabilis IID 994
  MIC: 0.025 µg/mL (≈ 0.0696 µM)
[4]
  MIC: 0.0063 µg/mL (≈ 0.0175 µM)
[5]
  MIC: 0.2 µg/mL (≈ 0.556 µM)
[6]
  MIC: 0.025 µg/mL (≈ 0.0696 µM)
S. epidermidis IID 866
  MIC: 0.05 µg/mL (≈ 0.139 µM)
[7]
  MIC: 0.05 µg/mL (≈ 0.139 µM)
Shigella sonnei IID 969
  MIC: 0.0063 µg/mL (≈ 0.0175 µM)
[8]
  MIC: 0.025 µg/mL (≈ 0.0696 µM)
[9]
  MIC: 0.0063 µg/mL (≈ 0.0175 µM)
[10]
  MIC: 0.0125 µg/mL (≈ 0.0348 µM)
[11]; IID977
  MIC: 0.025 µg/mL (≈ 0.0696 µM)
[12]
  MIC: 0.0063 µg/mL (≈ 0.0175 µM)
[13]
  MIC: 0.025 µg/mL (≈ 0.0696 µM)
P. aeruginosa IFO 12689
  MIC: 0.39 µg/mL (≈ 1.09 µM)
P. aeruginosa IID 1210
  MIC: 0.39 µg/mL (≈ 1.09 µM)
P. cepacia GIFU 518
  MIC: 0.2 µg/mL (≈ 0.556 µM)
P. maltophilia GIFU 2491
  MIC: 0.05 µg/mL (≈ 0.139 µM)
[14]
  MIC: 0.025 µg/mL (≈ 0.0696 µM)
[15]
  MIC: 0.1 µg/mL (≈ 0.278 µM)
[16]; GM7000
  MIC: 0.1 µg/mL (≈ 0.278 µM)
B. fragilis 0558
  MIC: 0.05 µg/mL (≈ 0.139 µM)
B. fragilis 25285
  MIC: 0.05 µg/mL (≈ 0.139 µM)
B. distasonis 8503
  MIC: 0.39 µg/mL (≈ 1.09 µM)
[17]
  MIC: 0.2 µg/mL (≈ 0.556 µM)
F. varium KYA 8501
  MIC: 0.78 µg/mL (≈ 2.17 µM)
[19]
  MIC: 0.05 µg/mL (≈ 0.139 µM)
[20]
  MIC: 0.78 µg/mL (≈ 2.17 µM)
[21]
  MIC: 0.025 µg/mL (≈ 0.0696 µM)
[22]
  MIC: 0.39 µg/mL (≈ 1.09 µM)
C. perfringens KYA 13123
  MIC: 0.1 µg/mL (≈ 0.278 µM)
C. ramosum; anaerobic, Gram +, 10^6 cells/ml
  MIC: 0.39 µg/mL (≈ 1.09 µM)
[23]; KYA27337
  MIC: 0.2 µg/mL (≈ 0.556 µM)
Pst micros UPI 5464-1
  MIC: 0.05 µg/mL (≈ 0.139 µM)
[24]; KYA10790
  MIC: 0.1 µg/mL (≈ 0.278 µM)
